Laboratory results: patent EP4752152A1, “STEROID COMPOUND, AND PREPARATION METHOD THEREFOR AND USE THEREOF” (Cholesgen (Shanghai) Co.Ltd., priority 2023, dated 2025)

Tested on: SREBP pathway
Experiment: SREBP luciferase reporter gene system (SRE-luciferase assay)
Type: cell-based, human
Conditions: Huh-7/SRE-luc cells, sterol-deficient medium, 0.01-10 µM
How it was run: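 Readout was SRE-driven luciferase normalised to GFP fluorescence in lysates of stably transfected Huh-7/SRE-luc hepatoma cells. Compounds (0.01, 0.03, 0.1, 0.3, 1.0, 3.0, 10 µM; DMSO control) were applied for 16 h in sterol-depleted medium with 2 µM lovastatin and 10 µM mevalonate; IC50 from variable-slope fit.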

| SMILES | IC50 (Homo sapiens, Huh-7, 16 h) | IC50 (16 hours) |
| --- | --- | --- |
| COc1cc(F)ccc1C(N)CCC[C@@H](C)[C@H]1CC[C@H]2[C@H]3[C@H](CC[C@]12C)[C@@]1(C)CC[C@H](O)[C@H](O)[C@@H]1CC3(F)F (stereo partly drawn) [Compound 156, (1R,3aS,3bS,5aR,6R,7S,9aR,9bS,11aR)-1-[(2R)-6-amino-6-(4-fluoro-2-methoxyphenyl)hexan-2-yl]-4,4-difluoro-9a,11a-dimethylhexadecahydro-1H-cyclopenta[1,2-a]phenanthrene-6,7-diol] | 1.32 µM |  |
| C[C@H](CCCC(O)c1cnc2c(c1)OC(F)(F)O2)[C@H]1CC[C@H]2[C@H]3[C@H](CC[C@]12C)[C@@]1(C)CC[C@H](O)[C@H](O)[C@@H]1CC3(F)F (stereo partly drawn) [Compound 284, (1R,3aS,3bS,5aR,6R,7 S,9aR,9bS,11aR)-1-[(2R)-6-(2,2-Difluoro[1,3]dioxolo[4,5-b]pyridin-6-yl)-6-hydroxyhexan-2-yl]-4,4-difluoro-9a,11a-dimethylhexadecahydro-1H-cyclopenta[1,2-a]phenanthrene-6,7-diol] | 0.309 µM |  |
| C[C@H](CCCC(O)c1ccc(OC(F)(F)F)cc1F)[C@H]1CC[C@H]2[C@H]3[C@H](CC[C@]12C)[C@@]1(C)CC[C@H](O)[C@H](O)[C@@H]1CC3(F)F (stereo partly drawn) [Compound 62, (1R,3aS,3bS,5aR,6R,7S,9aR,9bS,11aR)-4,4-difluoro-1-[(2R)-6-{2-fluoro-4-[(trifluoromethyl)oxy]phenyl}-6-hydroxyhexan-2-yl]-9a,11a-dimethylhexadecahydro-1H-cyclopenta[1,2-a]phenanthrene-6,7-diol] | 0.728 µM |  |
| C[C@H](CCCC(O)c1ccc(F)nc1OCc1ccccc1)[C@H]1CC[C@H]2[C@H]3[C@H](CC[C@]12C)[C@@]1(C)CC[C@H](O)[C@H](O)[C@@H]1CC3(F)F (stereo partly drawn) [Compound 281, (1R,3aS,3bS,5aR,6R,7S,9aR,9bS,11aR)-1-[(2R)-6-[2-(benzyloxy)-6-fluoropyridin-3-yl]-6-hydroxyhexan-2-yl]-4,4-difluoro-9a,11a-dimethylhexadecahydro-1H-cyclopenta[1,2-a]phenanthrene-6,7-diol] | 0.479 µM |  |
| C[C@H](CCC[C@H](O)c1cc2ccccc2o1)[C@H]1CC[C@H]2[C@H]3[C@H](CC[C@]12C)[C@@]1(C)CC[C@H](O)[C@H](O)[C@@H]1CC3(F)F [Compound 321, (1R,3aS,3bS,5aR,6R,7S,9aR,9bS,11aR)-1-[(2R,6S)-6-(1-benzofuran-2-yl)-6-hydroxyhexan-2-yl]-4,4-difluoro-9a,11a-dimethylhexadecahydro-1H-cyclopenta[1,2-a]phenanthrene-6,7-diol] |  | 0.114 µM |
| C[C@H](CCC[C@H](O)c1nnnn1C)[C@H]1CC[C@H]2[C@H]3[C@H](CC[C@]12C)[C@@]1(C)CC[C@H](O)C[C@@H]1CC3(F)F (single isomer, unassigned) [Compound 380] | 0.152 µM |  |
| COc1nc(F)ccc1C(O)CC[C@@H](C)[C@H]1CC[C@H]2[C@H]3[C@H](CC[C@]12C)[C@@]1(C)CC[C@H](O)[C@H](O)[C@@H]1CC3(F)F (stereo partly drawn) [Compound 341, (1R,3aS,3bS,5aR,6R,7S,9aR,9bS,11aR)-4,4-difluoro-1-[(2R)-5-(6-fluoro-2-methoxypyridin-3-yl)-5-hydroxypentan-2-yl]-9a,11a-dimethylhexadecahydro-1H-cyclopenta[1,2-a]phenanthrene-6,7-diol] | 0.206 µM |  |
| COc1ccccc1C(O)CCC[C@@H](C)[C@H]1CC[C@H]2C3=C(F)C[C@H]4C[C@@H](O)CC[C@]4(C)[C@H]3CC[C@]12C (stereo partly drawn) [Compound 73, (1R,3aR,5aR,7S,9aS,9bR,11aR)-4-fluoro-1-[(2R)-6-hydroxy-6-(2-methoxyphenyl)hexan-2-yl]-9a,11a-dimethyl-2,3,3a,5,5a,6,7,8,9,9a,9b,10,11,11a-tetradecahydro-1H-cyclopenta[1,2-a]phenanthren-7-ol] | 0.55 µM |  |
| C[C@H](CCCC(O)c1cccc2c1nnn2C)[C@H]1CC[C@H]2[C@H]3[C@H](CC[C@]12C)[C@@]1(C)CC[C@H](O)[C@H](O)[C@@H]1CC3(F)F (single isomer, unassigned) [Compound 291, (1R,3aS,3bS,5aR,6R,7S,9aR,9bS,11aR)-4,4-difluoro-1-[(2R,6R)-6-hydroxy-6-(1-methylbenzo[d][1,2,3]triazol-4-yl)hexan-2-yl]-9a,11a-dimethylhexadecahydro-1H-cyclopenta[1,2-a]phenanthrene-6,7-diol or (1R,3aS,3bS,5aR,6R,7S,9aR,9bS,11aR)-4,4-difluoro-1-[(2R,6S)-6-hydroxy-6-(1-methylbenzo[d][1,2,3]triazol-4-yl)hexan-2-yl]-9a,11a-dimethylhexadecahydro-1H-cyclopenta[1,2-a]phenanthrene-6,7-diol] |  | 0.141 µM |
| C[C@H](CCCC(O)c1ccccc1F)[C@H]1CC[C@H]2C3=C(F)C[C@H]4[C@@H](O)[C@@H](O)CC[C@]4(C)[C@H]3CC[C@]12C (stereo partly drawn) [Compound 4, (1R,3aR,5aR,6R,7S,9aR,9bR,11aR)-4-fluoro-1-[(2R)-6-(2-fluorophenyl)-6-hydroxyhexan-2-yl]-9a,11a-dimethyl-2,3,3a,5,5a,6,7,8,9,9a,9b,10,11,11a-tetradecahydro-1H-cyclopenta[1,2-a]phenanthrene-6,7-diol] | 0.09 µM |  |
| COc1nc(F)ccc1[C@@](C)(O)CCC[C@@H](C)[C@H]1CC[C@H]2[C@H]3[C@H](CC[C@]12C)[C@@]1(C)CC[C@H](O)[C@H](O)[C@@H]1CC3(F)F [Compound 309, (1R,3aS,3bS,5aR,6R,7S,9aR,9bS,11aR)-4,4-difluoro-1-[(2R,6S)-6-(6-fluoro-2-methoxypyridin-3-yl)-6-hydroxyheptan-2-yl]-9a,11a-dimethylhexadecahydro-1H-cyclopenta[1,2-a]phenanthrene-6,7-diol] | 0.143 µM |  |
| COc1ccc(C(O)CCC[C@@H](C)[C@H]2CC[C@H]3C4=C(F)C[C@H]5[C@@H](O)[C@@H](O)CC[C@]5(C)[C@H]4CC[C@]23C)cc1 (stereo partly drawn) [Compound 51, (1R,3aR,5aR,6R,7S,9aR,9bR,11aR)-4-fluoro-1-[(2R)-6-hydroxy-6-(4-methoxyphenyl)hexan-2-yl]-9a,11a-dimethyl-2,3,3a,5,5a,6,7,8,9,9a,9b,10,11,11a-tetradecahydro-1H-cyclopenta[1,2-a]phenanthrene-6,7-diol] | 0.212 µM |  |
| COc1ncc(F)cc1[C@@H](O)CCC[C@@H](C)[C@H]1CC[C@H]2[C@H]3[C@H](CC[C@]12C)[C@@]1(C)CC[C@H](O)[C@H](O)[C@@H]1CC3(F)F (single isomer, unassigned) [Compound 228] | 1.42 µM |  |
| COc1cccc(F)c1[C@H](O)CCC[C@@H](C)[C@H]1CC[C@H]2[C@H]3[C@H](CC[C@]12C)[C@@]1(C)CC[C@H](O)C[C@@H]1CC3(F)F (single isomer, unassigned) [Compound 315] | 0.125 µM |  |
| C[C@H](CCCC(O)c1cccc2nnn(C)c12)[C@H]1CC[C@H]2[C@H]3[C@H](CC[C@]12C)[C@@]1(C)CC[C@H](O)[C@H](O)[C@@H]1CC3(F)F (single isomer, unassigned) [Compound 278, (1R,3aS,3bS,5aR,6R,7S,9aR,9bS,11aR)-4,4-difluoro-1-[(2R,6R)-6-hydroxy-6-(3-methylbenzo[d][1,2,3]triazol-4-yl)hexan-2-yl]-9a,11a-dimethylhexadecahydro-1H-cyclopenta[1,2-a]phenanthrene-6,7-diol or (1R,3aS,3bS,5aR,6R,7S,9aR,9bS,11aR)-4,4-Difluoro-1-[(2R,6S)-6-hydroxy-6-(3-methylbenzo[d][1,2,3]triazol-4-yl)hexan-2-yl]-9a,11a-dimethylhexadecahydro-1H-cyclopenta[1,2-a]phenanthrene-6,7-diol] |  | 0.189 µM |
| C[C@H](CCC[C@H](O)c1cc2ccccc2o1)[C@H]1CC[C@H]2[C@H]3[C@H](CC[C@]12C)[C@@]1(C)CC[C@H](O)[C@H](O)[C@@H]1CC3(F)F [Compound 316, (1R,3aS,3bS,5aR,6R,7S,9aR,9bS,11aR)-1-[(2R,6S)-6-(1-benzofuran-2-yl)-6-hydroxyhexan-2-yl]-4,4-difluoro-9a,11a-dimethylhexadecahydro-1H-cyclopenta[1,2-a]phenanthrene-6,7-diol] | 0.145 µM |  |
| COc1cc(F)cc(F)c1[C@H](O)CCC[C@@H](C)[C@H]1CC[C@H]2C3=C(F)C[C@H]4[C@@H](O)[C@@H](O)CC[C@]4(C)[C@H]3CC[C@]12C (single isomer, unassigned) [Compound 203] | 0.174 µM |  |
| COc1cncc(F)c1C(O)CCC[C@@H](C)[C@H]1CC[C@H]2[C@H]3[C@H](CC[C@]12C)[C@@]1(C)CC[C@H](O)[C@H](O)[C@@H]1CC3(F)F (single isomer, unassigned) [Compound 251, (1R,3aS,3bS,5aR,6R,7S,9aR,9bS,11aR)-4,4-difluoro-1-[(2R,6S)-6-(3-fluoro-5-methoxypyridin-4-yl)-6-hydroxyhexan-2-yl]-9a,11a-dimethylhexadecahydro-1H-cyclopenta[1,2-a]phenanthrene-6,7-diol or (1R,3aS,3bS,5aR,6R,7S,9aR,9bS,11aR)-4,4-difluoro-1-[(2R,6R)-6-(3-fluoro-5-methoxypyridin-4-yl)-6-hydroxyhexan-2-yl]-9a,11a-dimethylhexadecahydro-1H-cyclopenta[1,2-a]phenanthrene-6,7-diol] | 0.042 µM |  |
| COc1cc(Cl)ccc1[C@H](O)CCC[C@@H](C)[C@H]1CC[C@H]2C3=C(F)C[C@H]4[C@@H](O)[C@@H](O)CC[C@]4(C)[C@H]3CC[C@]12C [Compound 110, (1R,3aR,5aR,6R,7S,9aR,9bR,11aR)-1-[(2R,6R)-6-(4-chloro-2-methoxyphenyl)-6-hydroxyhexan-2-yl]-4-fluoro-9a,11a-dimethyl-2,3,3a,5,5a,6,7,8,9,9a,9b,10,11,11a-tetradecahydro-1H-cyclopenta[1,2-a]phenanthrene-6,7-diol] | 1.13 µM |  |
